Several values for one entry are separate records, joined by “and”; a condition that tells them apart may be missing. Equal values may be shown once.
Assays:
[1] = In vivo biodistribution of radioactive ^99mTc complexes in female SD rats; set-up: species or system female Sprague-Dawley (SD) rats; conditions: for Biodistribution: Large Intestine / Biodistribution: Small Intestine / Biodistribution: Stomach: unit % ID
Protocol: (§1) Female SD rats (180-220 g, n=3) were fasted for 12 h before the experiment, and the purified radioactive 99mTc complexes 78-81 were prepared into physiological saline (containing 10% ethanol) solutions of about 250-350 μCi/mL. 200 μL of the above solution was injected into the tail vein of female SD rats, and the rats were killed by cervical dislocation at five time points, 15, 30, 60, 120 and 240 min after the tail vein injection. The blood, brain, heart, liver, spleen, lung, kidney, muscle, bone, large intestine, small intestine, stomach and tail were collected, weighed and counted, and the count distribution of each tissue and organ was calculated (unit: % ID/g, the unit of large intestine, small intestine and stomach is % ID), and the data are the mean±standard deviation of three mice in each phase. At the same time, 200 μL of the above solution was diluted to 20 mL, which was used as the % ID without deducting the tail count.

fatty acid β-oxidation = assay: TMZ (trimetazidine hydrochloride) blocking experiment, biodistribution in female SD rats; format: in vivo
Protocol: as §1
Trimetazidine hydrochloride (TMZ) is a widely used anti-anginal drug and an inhibitor of fatty acid β-oxidation. […] Therefore, in order to investigate the sensitivity of radioactive ^99mTc complex 80 to fatty acid β-oxidation, we first performed a TMZ blocking experiment from the perspective of biodistribution. Among them, SD rats killed 60 min after injection were divided into two groups: one group of fasting female SD rats were injected with saline (0.2 mL) solution containing TMZ (40 mg/kg) and our radiotracer ^99mTc complex 80 (TMZ administration group), and the other group of fasting female SD rats were injected with radioactive ^99mTc complex 80 only (control group). The absolute myocardial uptake of the control SD rats and the TMZ-administered SD rats was compared 60 min after the tail vein injection of our radiotracer 80 (corresponding to the time point of the peak absolute myocardial uptake). […] The effect of TMZ administration on the metabolic fate of the radioactive ^99mTc complex 80 will also be discussed in Example 4 below.

[2] = Metabolism study in female SD rats (modified Folch extraction, ^99mTc gamma counting); format: in vivo
Protocol: Female SD rats (180-220 g, fasted overnight) were injected with […] radioactive ^99mTc complex 80 (200-300 μCi, dissolved in 10% EtOH saline, 1000 μL) (n=3) through the tail vein. Heart, intestine and liver samples were collected at 60 min and 120 min after injection. Among them, the SD rats killed at 60 min post-injection were divided into two groups: one group of fasting female SD rats were injected with saline (0.2 mL) solution containing fatty acid β-oxidation inhibitor TMZ (40 mg/kg) and our radiotracer (TMZ-administratied group), and the other group of fasting female SD rats were injected with radioactive ^99mTc complex 80 only (control group). Heart, intestine or liver samples were homogenized in a mixture of CHCl3—CH3OH in a volume ratio of 2:1, then 40% urea and 5% sulfuric acid aqueous solution were added, and they were sonicated and centrifuged at 2000 rpm for 10 min (a modified Folch extraction method). The ^99mTc gamma counting were performed on the resulting aqueous phase, organic phase and residual tissue particle phase (n=3).
In addition, the residual tissue particles obtained from the heart samples were measured for radioactivity counts, then heated and dissolved in 1 mol/L NaOH solution at 90° C. for 1 h, cooled, and then treated with 50% trichloroacetic acid (TCA). After centrifugation at 2000 rpm for 10 min, the obtained supernatant and precipitate were ^99mTc gamma counting.

[3] = female SD rats, 60 min, blocked by trimetazidine hydrochloride (TMZ 40 mg/kg)
[4] = female SD rats, 60 min, blocked by trimetazidine hydrochloride (TMZ 40 mg/kg), unit % ID
[5] = heart in TMZ-administrated SD rats (TMZ 40 mg/kg), 60 min
[6] = heart in control SD rats, 60 min, percentage of total ^99mTc radioactivity counts
[7] = heart in control SD rats, 120 min
[8] = intestine in control SD rats, 60 min
[9] = intestine in control SD rats, 120 min
[10] = liver in control SD rats, 60 min
[11] = liver in control SD rats, 120 min

COC(C)(C)C[N+]#[C][99Tc-5]([C]#[N+]CC(C)(C)OC)([C]#[N+]CC(C)(C)OC)([C]#[N+]CC(C)(C)OC)([C]#[N+]CC(C)(C)OC)[C]#[N+]CC(C)(C)OCCCCCSCCCCC(=O)O [^99mTc complex 80]
Biodistribution: Large Intestine ([1]; 120 min post-injection): 22.13 ± 2.94 % ID | Biodistribution: Small Intestine ([1]; 120 min post-injection): 5.02 ± 0.82 % ID | Biodistribution: Stomach ([1]; 120 min post-injection): 0.55 ± 0.08 % ID | Biodistribution: Blood ([1]; 240 min post-injection): 0.007 ± 0.001 ID %/g | Biodistribution: Bone ([1]; 240 min post-injection): 0.043 ± 0.003 ID %/g | Biodistribution: Brain ([1]; 240 min post-injection): 0.007 ± 0.002 ID %/g | Biodistribution: Heart ([1]; 240 min post-injection): 0.93 ± 0.09 ID %/g | Biodistribution: Kidney ([1]; 240 min post-injection): 0.49 ± 0.03 ID %/g | Biodistribution: Liver ([1]; 240 min post-injection): 0.17 ± 0.03 ID %/g | Biodistribution: Lungs ([1]; 240 min post-injection): 0.06 ± 0.01 ID %/g | Biodistribution: Muscle ([1]; 240 min post-injection): 0.22 ± 0.02 ID %/g | Biodistribution: Spleen ([1]; 240 min post-injection): 0.06 ± 0.01 ID %/g | Heart-to-Blood ratio ([1]; 240 min post-injection): 141.90±22.86 | Heart-to-Liver ratio ([1]; 240 min post-injection): 5.56±1.30 | Heart-to-Lungs ratio ([1]; 240 min post-injection): 15.00±3.18 | absolute myocardial uptake value ([1]; 240 min post-injection): 0.93±0.09 % ID/g | Biodistribution: Large Intestine ([1]; 240 min post-injection): 22.41 ± 1.13 % ID | Biodistribution: Small Intestine ([1]; 240 min post-injection): 7.36 ± 0.64 % ID | Biodistribution: Stomach ([1]; 240 min post-injection): 0.20 ± 0.02 % ID | absolute myocardial uptake peak value ([1]; peak at 60 min post-injection): 2.06±0.06 % ID/g | decrease of absolute myocardial uptake value ([1]; within 60-240 min post-injection): 54.9% | decrease of absolute myocardial uptake, TMZ-administered vs control SD rats (fatty acid β-oxidation; 60 min post-injection, TMZ 40 mg/kg, P<0.01): 51% | sensitivity to myocardial fatty acid β-oxidation (fatty acid β-oxidation; TMZ blocking, female SD rats): quite sensitive | Biodistribution: Blood (fatty acid β-oxidation; [3]): 0.024 ± 0.003 ID %/g | Biodistribution: Bone (fatty acid β-oxidation; [3]): 0.07 ± 0.01 ID %/g | Biodistribution: Brain (fatty acid β-oxidation; [3]): 0.009 ± 0.005 ID %/g | Biodistribution: Heart (fatty acid β-oxidation; [3]): 1.01 ± 0.19 ID %/g | Biodistribution: Kidney (fatty acid β-oxidation; [3]): 0.97 ± 0.28 ID %/g | Biodistribution: Liver (fatty acid β-oxidation; [3]): 0.51 ± 0.16 ID %/g | Biodistribution: Lungs (fatty acid β-oxidation; [3]): 0.16 ± 0.02 ID %/g | Biodistribution: Muscle (fatty acid β-oxidation; [3]): 0.31 ± 0.06 ID %/g | Biodistribution: Spleen (fatty acid β-oxidation; [3]): 0.10 ± 0.04 ID %/g | Heart-to-Blood ratio (fatty acid β-oxidation; [3]): 41.25 ± 3.12 | Heart-to-Liver ratio (fatty acid β-oxidation; [3]): 2.06 ± 0.41 | Heart-to-Lungs ratio (fatty acid β-oxidation; [3]): 6.28 ± 0.29 | Biodistribution: Large Intestine (fatty acid β-oxidation; [4]): 15.54 ± 6.05 % ID | Biodistribution: Small Intestine (fatty acid β-oxidation; [4]): 16.59 ± 4.32 % ID | Biodistribution: Stomach (fatty acid β-oxidation; [4]): 1.10 ± 0.19 % ID | reduction of residual tissue granular phase proportion, TMZ-treated vs control heart samples ([2]; 60 min after injection, P<0.01): 61% | precipitated ^99mTc radioactivity count as share of residual tissue granular phase ([2]; control SD rat heart, 60 min, dissolved in 1 mol/L NaOH 90° C. 1 h, 50% trichloroacetic acid added): 86.0% | % aqueous fraction [2, 5]: 0.29 ± 0.06% | % organic fraction [2, 5]: 73.11±2.03% | % residual tissue pellet [2, 5]: 26.60±2.09% | % aqueous fraction [2, 6]: 0.50 ± 0.21% | % organic fraction [2, 6]: 31.38±2.48% | % residual tissue pellet [2, 6]: 68.54±3.66% and 68.12 ± 2.69% | % aqueous fraction [2, 7]: 0.53 ± 0.23% | % organic fraction [2, 7]: 33.20 ± 4.56% | % residual tissue pellet [2, 7]: 66.27±34.54% and 66.27 ± 4.54% | % aqueous fraction [2, 8]: 0.54 ± 0.24% | % organic fraction [2, 8]: 38.76 ± 5.69% | % residual tissue pellet [2, 8]: 60.70±5.71% | % aqueous fraction [2, 9]: 1.68 ± 0.44% | % organic fraction [2, 9]: 32.77 ± 3.98% | % residual tissue pellet [2, 9]: 65.55±3.54% | % aqueous fraction [2, 10]: 0.66 ± 0.21% | % organic fraction [2, 10]: 35.30 ± 4.75% | % residual tissue pellet [2, 10]: 64.04±4.90% | % aqueous fraction [2, 11]: 0.85 ± 0.30% | % organic fraction [2, 11]: 31.92 ± 3.83% | % residual tissue pellet [2, 11]: 67.23 ± 4.08%
